From patent US20250066388A1, “1,3,4,7-TETRAHYDRO-2H-PYRROLO[3',2':5,6]PYRIDO[2,3-B][1,4]OXAZEPINE BCL-2 INHIBITORS” (AbbVie Inc., priority 2022, published 2025)

What was measured:
Bcl-2 protein = Bcl-2 protein (Homo sapiens (Human), UniProt P10415); test: TR-FRET binding assay, Bcl-2; details: F-Bak peptide probe, GST-Bcl-2
Method: (§1) Determination of the utility of compounds having Formula (I) or Formula (II) as binders to and inhibitors of anti-apoptotic Bcl-2 proteins was performed using the Time Resolved-Fluorescence Resonance Energy Transfer (TR-FRET) Assay. Tb-anti-GST antibody was purchased from Invitrogen (Catalog No. PV4216).
A Bcl-2 human encoding sequence was cloned into a pET41A vector (Novagen). The protein was expressed with E. coli. BL21(DE3)-T1R strain in OETB autoinduction medium at 30° C. for 25 hours. The cell pellets were resuspended in lysis buffer (50 mM Tris, 140 mM NaCl, 1 mM DTT, 10% Glycerol, 2 mM MgCl2, pH 7.3) and lysed with Microfluidizer. The Bcl-2 protein in clarified cell-lysate was purified with affinity chromatography (GST and Ni-NTA). The eluate was loaded onto a Superdex 75 column and further purified with a Q Sepharose column. The protein was purified on a phenyl hydrophobic interaction column and dialyzed in the storage buffer (50 mM Tris, 50 mM NaCl, 2 mM DTT, pH 7.5) and stored at −80° C.
(§2) […] of a protein (Bcl-2 or Bcl-xL)/probe/antibody mixture pre-equilibrated for one hour in assay buffer was added to each well at final concentrations listed in Table 6 below.
(§3) The samples were then mixed on a shaker for 1 minute and equilibrated for an additional 3 hours at room temperature. For each assay plate, a probe/antibody and protein/antibody/probe mixture were included as a negative and a positive control, respectively. Fluorescence was measured on the Envision (Perkin Elmer) using a 340/35 nm excitation filter and 520/525 (F-Bak) and 495/510 nm (Tb-labeled anti-GST antibody) emission filters. Inhibition constants (Ki) were determined using Wang's equation (Wang FEBS Lett. 1995, 360, 111-114). The TR-FRET assay can be performed in the presence of varying concentrations of human serum (HS) to determine apparent half maximal inhibitory concentration (IC50) after HS protein binding.
(§4) Inhibition constants were determined using Wang's equation (Wang FEBS Lett. 1995, 360:111-4).

Bcl-xL protein = Bcl-xL protein (Homo sapiens (Human), UniProt Q07817); test: TR-FRET binding assay, Bcl-xL; details: F-Bak peptide probe
Method: as §1
A human Bcl-xL encoding sequence was cloned into a pET41A vector. The protein was expressed with E. coli. BL21(DE3)-T1R strain in OETB autoinduction medium at 30° C. for 25 hours. The cell pellets were resuspended in lysis buffer (50 mM Tris, 140 mM NaCl, 1 mM DTT, 10% Glycerol, 0.1% Triton X-100, pH 7.5) and lysed with Microfluidizer. The Bcl-xL protein in clarified cell-lysate was purified with GST affinity chromatography. The eluate was dialyzed in the storage buffer (1×PBS, 10% Glycerol, 2 mM DTT, 1 mM Sodium Azide, pH 7.4) and stored at −80° C.
as §2, §3, §4

Chain of Bcl-xL protein (Q07817 other isoform, or with tags, fused parts or gaps): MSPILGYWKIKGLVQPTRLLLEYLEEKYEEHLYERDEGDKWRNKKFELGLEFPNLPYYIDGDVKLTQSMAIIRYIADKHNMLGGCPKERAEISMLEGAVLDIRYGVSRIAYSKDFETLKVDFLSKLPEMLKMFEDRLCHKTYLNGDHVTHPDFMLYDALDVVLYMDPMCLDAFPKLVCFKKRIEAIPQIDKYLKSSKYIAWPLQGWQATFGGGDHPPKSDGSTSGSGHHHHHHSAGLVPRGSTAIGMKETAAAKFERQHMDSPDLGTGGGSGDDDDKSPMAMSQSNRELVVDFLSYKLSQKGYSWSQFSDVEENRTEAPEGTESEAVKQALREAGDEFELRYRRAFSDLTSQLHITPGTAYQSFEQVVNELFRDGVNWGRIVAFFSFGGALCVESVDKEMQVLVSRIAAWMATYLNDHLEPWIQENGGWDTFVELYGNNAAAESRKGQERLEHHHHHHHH
Chain of Bcl-2 protein (P10415 other isoform, or with tags, fused parts or gaps): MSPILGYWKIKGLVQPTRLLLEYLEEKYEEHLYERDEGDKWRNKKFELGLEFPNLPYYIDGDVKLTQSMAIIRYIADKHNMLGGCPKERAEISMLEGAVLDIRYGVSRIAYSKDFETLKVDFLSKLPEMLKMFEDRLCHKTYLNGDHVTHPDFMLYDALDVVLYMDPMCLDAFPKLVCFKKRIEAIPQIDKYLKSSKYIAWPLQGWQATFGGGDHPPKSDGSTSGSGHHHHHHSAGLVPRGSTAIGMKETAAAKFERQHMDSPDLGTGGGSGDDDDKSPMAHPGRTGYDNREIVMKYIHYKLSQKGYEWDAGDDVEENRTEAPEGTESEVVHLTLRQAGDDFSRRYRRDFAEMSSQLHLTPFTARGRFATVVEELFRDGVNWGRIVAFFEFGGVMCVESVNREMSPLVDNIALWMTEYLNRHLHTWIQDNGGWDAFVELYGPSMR

CC1(C)CC(c2ccc(Cl)cc2)=C2CN3CCN(c4ccc(C(=O)NS(=O)(=O)c5ccc(NC[C@H]6C[C@](O)(CF)C6)c([N+](=O)[O-])c5)c(N5CCCOc6nc7[nH]ccc7cc65)c4)C[C@H]3COCCCO[C@@H]2C1 [Example 16, 4-((4aS,10aR)-14-(4-chlorophenyl)-12,12-dimethyl-1,2,4a,5,8,9,10a,11,13,15-decahydro-7H,12H-benzo[f]pyrazino[2,1-c][1,8]dioxa[4]azacycloundecin-3(4H)-yl)-2-(3,4-dihydro-2H-pyrrolo[3′,2′:5,6]pyrido[2,3-b][1,4]oxazepin-1(7H)-yl)-N-((4-((((1s,3s)-3-(fluoromethyl)-3-hydroxycyclobutyl)methyl)amino)-3-nitrophenyl)sulfonyl)benzamide]
Ki (Bcl-2 protein): 0.297 nM
Ki (Bcl-xL protein): 15 nM

COC1CO[C@H](CNc2ccc(S(=O)(=O)NC(=O)c3ccc(N4CCN5CC6=C(c7ccc(Cl)cc7)CC(C)(C)C[C@H]6OCCCOC[C@@H]5C4)cc3N3CCCOc4nc5[nH]ccc5cc43)cc2[N+](=O)[O-])C1 (stereo partly drawn) [Example 29, 4-((4aS,10aR)-14-(4-chlorophenyl)-12,12-dimethyl-1,2,4a,5,8,9,10a,11,13,15-decahydro-7H,12H-benzo[f]pyrazino[2,1-c][1,8]dioxa[4]azacycloundecin-3(4H)-yl)-2-(3,4-dihydro-2H-pyrrolo[3′,2′:5,6]pyrido[2,3-b][1,4]oxazepin-1(7H)-yl)-N-((4-((((2S)-4-methoxytetrahydrofuran-2-yl)methyl)amino)-3-nitrophenyl)sulfonyl)benzamide]
Ki (Bcl-2 protein): 2.59 nM
Ki (Bcl-xL protein): 22.5 nM

CO[C@H]1CC[C@H](CNc2ccc(S(=O)(=O)NC(=O)c3ccc(N4CCN5CC6=C(c7ccc(Cl)cc7)CC(C)(C)C[C@H]6OCCCOC[C@@H]5C4)cc3N3CCCOc4nc5[nH]ccc5cc43)cc2[N+](=O)[O-])CC1 [Example 5, 4-((4aS,10aR)-14-(4-chlorophenyl)-12,12-dimethyl-1,2,4a,5,8,9,10a,11,13,15-decahydro-7H,12H-benzo[f]pyrazino[2,1-c][1,8]dioxa[4]azacycloundecin-3(4H)-yl)-2-(3,4-dihydro-2H-pyrrolo[3′,2′:5,6]pyrido[2,3-b][1,4]oxazepin-1(7H)-yl)-N-((4-((((1r,4r)-4-methoxycyclohexyl)methyl)amino)-3-nitrophenyl)sulfonyl)benzamide]
Ki (Bcl-2 protein): 0.149 nM
Ki (Bcl-xL protein): 20 nM

CC1(C)CC(c2ccc(Cl)cc2)=C2CN3CCN(c4ccc(C(=O)NS(=O)(=O)c5ccc(NC[C@@H]6CC[C@@H](O)CO6)c([N+](=O)[O-])c5)c(N5CCCOc6nc7[nH]ccc7cc65)c4)C[C@H]3COCCCO[C@@H]2C1 [Example 27, 4-((4aS,10aR)-14-(4-chlorophenyl)-12,12-dimethyl-1,2,4a,5,8,9,10a,11,13,15-decahydro-7H,12H-benzo[f]pyrazino[2,1-c][1,8]dioxa[4]azacycloundecin-3(4H)-yl)-2-(3,4-dihydro-2H-pyrrolo[3′,2′:5,6]pyrido[2,3-b][1,4]oxazepin-1(7H)-yl)-N-((4-((((2S,5R)-5-hydroxytetrahydro-2H-pyran-2-yl)methyl)amino)-3-nitrophenyl)sulfonyl)benzamide]
Ki (Bcl-2 protein): 1.72 nM
Ki (Bcl-xL protein): 7.41 nM

CC1(C)CC(c2ccc(Cl)cc2)=C2CN3CCN(c4ccc(C(=O)NS(=O)(=O)c5ccc(OCC6(F)CCN(C7COC7)CC6)c(Cl)c5)c(N5CCCOc6nc7[nH]ccc7cc65)c4)C[C@H]3COCCCO[C@@H]2C1 [Example 9, N-(3-chloro-4-{[4-fluoro-1-(oxetan-3-yl)piperidin-4-yl]methoxy}benzene-1-sulfonyl)-4-[(4aS,10aR)-14-(4-chlorophenyl)-12,12-dimethyl-1,2,4a,5,8,9,11,12,13,15-decahydro-7H,10aH-pyrazino[2,1-g][1,5,8]benzodioxazacycloundecin-3(4H)-yl]-2-(3,4-dihydro-2H-pyrrolo[3′,2′:5,6]pyrido[2,3-b][1,4]oxazepin-1(7H)-yl)benzamide]
Ki (Bcl-2 protein): 0.267 nM
Ki (Bcl-xL protein): 20.6 nM

CC1(C)CC(c2ccc(Cl)cc2)=C2CN3CCN(c4ccc(C(=O)NS(=O)(=O)c5ccc(NC[C@H]6C[C@@](O)(CF)C6)c([N+](=O)[O-])c5)c(N5CCCOc6nc7[nH]ccc7cc65)c4)C[C@H]3COCCCO[C@@H]2C1 [Example 8, 4-((4aS,10aR)-14-(4-chlorophenyl)-12,12-dimethyl-1,2,4a,5,8,9,10a,11,13,15-decahydro-7H,12H-benzo[f]pyrazino[2,1-c][1,8]dioxa[4]azacycloundecin-3(4H)-yl)-2-(3,4-dihydro-2H-pyrrolo[3′,2′:5,6]pyrido[2,3-b][1,4]oxazepin-1(7H)-yl)-N-((4-((((1r,3r)-3-(fluoromethyl)-3-hydroxycyclobutyl)methyl)amino)-3-nitrophenyl)sulfonyl)benzamide]
Ki (Bcl-2 protein): 0.448 nM
Ki (Bcl-xL protein): 0.125 nM

COCCN1CCC(F)(COc2ncc(S(=O)(=O)NC(=O)c3ccc(N4CCN5CC6=C(c7ccc(Cl)cc7)CC(C)(C)C[C@H]6OCCCOC[C@@H]5C4)cc3N3CCCOc4nc5[nH]ccc5cc43)cc2Cl)CC1 [Example 22, N-((5-chloro-6-((4-fluoro-1-(2-methoxyethyl)piperidin-4-yl)methoxy)pyridin-3-yl)sulfonyl)-4-((4aS,10aR)-14-(4-chlorophenyl)-12,12-dimethyl-1,2,4a,5,8,9,10a,11,13,15-decahydro-7H,12H-benzo[f]pyrazino[2,1-c][1,8]dioxa[4]azacycloundecin-3(4H)-yl)-2-(3,4-dihydro-2H-pyrrolo[3′,2′:5,6]pyrido[2,3-b][1,4]oxazepin-1(7H)-yl)benzamide]
Ki (Bcl-2 protein): 0.339 nM
Ki (Bcl-xL protein): 14.7 nM

CC1(C)CC(c2ccc(Cl)cc2)=C2CN3CCN(c4ccc(C(=O)NS(=O)(=O)c5cnc(OCC6(F)CCOCC6)c(Cl)c5)c(N5CCCOc6nc7[nH]ccc7cc65)c4)C[C@H]3COCCCO[C@@H]2C1 [Example 7, N-((5-chloro-6-((4-fluorotetrahydro-2H-pyran-4-yl)methoxy)pyridin-3-yl)sulfonyl)-4-((4aS,10aR)-14-(4-chlorophenyl)-12,12-dimethyl-1,2,4a,5,8,9,10a,11,13,15-decahydro-7H,12H-benzo[f]pyrazino[2,1-c][1,8]dioxa[4]azacycloundecin-3(4H)-yl)-2-(3,4-dihydro-2H-pyrrolo[3′,2′:5,6]pyrido[2,3-b][1,4]oxazepin-1(7H)-yl)benzamide]
Ki (Bcl-2 protein): 0.0503 nM
Ki (Bcl-xL protein): > 661 nM

CO[C@H]1CC[C@H](CNc2ccc(S(=O)(=O)NC(=O)c3ccc(N4CCN5CC6=C(c7ccc(Cl)cc7)CC(C)(C)C[C@H]6OCCCOC[C@@H]5C4)cc3N3CCCOc4nc5[nH]ccc5cc43)cc2[N+](=O)[O-])OC1 [Example 13, 4-((4aS,10aR)-14-(4-chlorophenyl)-12,12-dimethyl-1,2,4a,5,8,9,10a,11,13,15-decahydro-7H,12H-benzo[f]pyrazino[2,1-c][1,8]dioxa[4]azacycloundecin-3(4H)-yl)-2-(3,4-dihydro-2H-pyrrolo[3′,2′:5,6]pyrido[2,3-b][1,4]oxazepin-1(7H)-yl)-N-((4-((((2R,5S)-5-methoxytetrahydro-2H-pyran-2-yl)methyl)amino)-3-nitrophenyl)sulfonyl)benzamide]
Ki (Bcl-2 protein): 0.35 nM
Ki (Bcl-xL protein): 6.8 nM

CC1(C)CC(c2ccc(Cl)cc2)=C2CN3CCN(c4ccc(C(=O)NS(=O)(=O)c5cnc(OC[C@]6(F)CC[C@H](N7CCOCC7)CC6)c(Cl)c5)c(N5CCCOc6nc7[nH]ccc7cc65)c4)C[C@H]3COCCCO[C@@H]2C1 [Example 11, N-((5-chloro-6-(((1r,4r)-1-fluoro-4-morpholinocyclohexyl)methoxy)pyridin-3-yl)sulfonyl)-4-((4aS,10aR)-14-(4-chlorophenyl)-12,12-dimethyl-1,2,4a,5,8,9,10a,11,13,15-decahydro-7H,12H-benzo[f]pyrazino[2,1-c][1,8]dioxa[4]azacycloundecin-3(4H)-yl)-2-(3,4-dihydro-2H-pyrrolo[3′,2′:5,6]pyrido[2,3-b][1,4]oxazepin-1(7H)-yl)benzamide]
Ki (Bcl-2 protein): 0.936 nM
Ki (Bcl-xL protein): 17.3 nM
